Here are results for 13 molecules from paper PMC6893898, “Receptor Interaction Profiles of 4-Alkoxy-Substituted 2,5-Dimethoxyphenethylamines and Related Amphetamines” (Frontiers in Pharmacology, 2019).

One assay concerns the target T1, human 5-HT2B receptor (Homo sapiens, UniProt P41595).
T1 construct: expressed in transfected cells; host or cells: HEK 293
Put plainly: Activity at the 5-HT2B receptor (FLIPR calcium, HEK 293 cells). The class given is cell-based. Conditions: for Emax: HEK293, relative to 5-HT = 100%, read-out: h5-HT2B Activation efficacy max ± SD. The method, then:
Activity at the 5-HT2B receptor was examined as previously described ([Luethi et al., 2018]). In summary, HEK 293 cells expressing the human 5-HT2B receptor were seeded at a density of 50,000 cells per well in 96-well poly-D-lysine-coated plates overnight at 37°C. The cells were then incubated in growth medium consisting of high glucose Dulbecco’s modified Eagle’s medium (DMEM) (Invitrogen, Zug, Switzerland), 10% fetal calf serum (non-dialyzed, heat-inactivated), 250 mg/l Geneticin and 10 ml/l PenStrep (Gibco), overnight at 37°C. After removal of the growth medium via snap inversion, calcium indicator Fluo-4-solution (100 µl) was injected into each well (Molecular Probes, Eugene, OR, USA) and incubated for 45 min at 31°C. Afterwards, the Fluo-4 solution was removed (snap inversion) and a further 100 µl of the Fluo-4 solution was added and incubated (45 min, 31°C). Thereafter, using the EMBLA cell washer, the cells were washed just before testing with HBSS and 20 mM HEPES and exposed to 100 µl of assay buffer. The well plate was positioned in the FLIPR and while online, 25 µl of the test compounds diluted in assay buffer were added. Concentration-response curves were calculated using nonlinear regression, and EC50 values were obtained. The maximal activity at the receptors was calculated relative to 5-HT activity which was defined as 100%.

For the next assay, the target named is T2, α2A adrenergic receptor (Homo sapiens, UniProt P08913).
T2 construct: expressed in transfected cells; host or cells: Chinese hamster lung cell line (membrane preparation)
T2 sequence (P08913 1-465): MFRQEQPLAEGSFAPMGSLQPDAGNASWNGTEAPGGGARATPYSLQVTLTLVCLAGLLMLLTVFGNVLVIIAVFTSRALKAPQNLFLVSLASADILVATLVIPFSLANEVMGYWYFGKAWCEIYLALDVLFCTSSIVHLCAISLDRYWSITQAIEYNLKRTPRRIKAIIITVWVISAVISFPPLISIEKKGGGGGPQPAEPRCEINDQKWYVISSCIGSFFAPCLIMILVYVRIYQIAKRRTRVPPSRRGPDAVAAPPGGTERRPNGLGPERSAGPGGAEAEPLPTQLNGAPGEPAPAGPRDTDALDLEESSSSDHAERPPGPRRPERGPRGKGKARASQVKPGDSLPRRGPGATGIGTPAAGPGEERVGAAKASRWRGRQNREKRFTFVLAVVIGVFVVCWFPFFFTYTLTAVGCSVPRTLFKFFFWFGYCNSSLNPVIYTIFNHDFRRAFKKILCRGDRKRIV
Briefly: Radioligand binding, α2A adrenergic receptor ([3H]rauwolscine).

A further assay concerns the target T3, α1A adrenergic receptor (Homo sapiens, UniProt P35348).
T3 construct: expressed in transfected cells; host or cells: Chinese hamster ovary cell line (membrane preparation)
T3 sequence (P35348 1-466): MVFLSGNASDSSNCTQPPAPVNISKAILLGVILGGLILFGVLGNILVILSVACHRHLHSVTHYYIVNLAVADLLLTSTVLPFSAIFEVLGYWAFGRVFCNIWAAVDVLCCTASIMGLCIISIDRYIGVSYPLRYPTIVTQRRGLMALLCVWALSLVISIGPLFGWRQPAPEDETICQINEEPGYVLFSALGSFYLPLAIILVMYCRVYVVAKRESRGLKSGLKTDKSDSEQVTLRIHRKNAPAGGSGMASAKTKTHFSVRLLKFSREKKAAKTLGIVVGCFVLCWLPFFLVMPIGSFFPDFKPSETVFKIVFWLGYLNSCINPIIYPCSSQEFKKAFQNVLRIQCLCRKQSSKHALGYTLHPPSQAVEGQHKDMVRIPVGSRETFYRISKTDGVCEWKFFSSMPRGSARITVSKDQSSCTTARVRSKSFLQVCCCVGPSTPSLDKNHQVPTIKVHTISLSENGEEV
Put plainly: Radioligand binding, α1A adrenergic receptor ([3H]prazosin).

The next assay deals with hDAT (Homo sapiens, UniProt Q01959). Put plainly: Radioligand binding, DAT ([3H]WIN35,428). Details: expressed in transfected cells; host or cells: HEK 293 (membrane preparation).
hDAT, sequence (Q01959 whole entry): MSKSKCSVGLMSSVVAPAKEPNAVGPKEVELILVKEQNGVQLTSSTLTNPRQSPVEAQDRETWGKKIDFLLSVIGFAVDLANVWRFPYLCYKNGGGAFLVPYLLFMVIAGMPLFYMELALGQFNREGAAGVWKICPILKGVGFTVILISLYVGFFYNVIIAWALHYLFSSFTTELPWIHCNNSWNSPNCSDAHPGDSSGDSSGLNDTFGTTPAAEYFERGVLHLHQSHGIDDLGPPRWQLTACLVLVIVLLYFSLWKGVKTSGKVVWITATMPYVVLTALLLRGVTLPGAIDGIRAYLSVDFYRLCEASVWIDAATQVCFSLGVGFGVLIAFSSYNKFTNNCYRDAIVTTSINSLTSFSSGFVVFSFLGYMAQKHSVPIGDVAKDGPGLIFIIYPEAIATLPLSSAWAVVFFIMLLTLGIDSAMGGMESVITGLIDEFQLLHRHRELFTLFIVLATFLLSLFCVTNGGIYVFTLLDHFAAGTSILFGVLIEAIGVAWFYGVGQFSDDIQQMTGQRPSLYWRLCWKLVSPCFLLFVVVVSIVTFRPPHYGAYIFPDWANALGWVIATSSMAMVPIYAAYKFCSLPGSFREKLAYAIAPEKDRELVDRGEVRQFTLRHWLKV

T1 sequence (P41595 whole entry): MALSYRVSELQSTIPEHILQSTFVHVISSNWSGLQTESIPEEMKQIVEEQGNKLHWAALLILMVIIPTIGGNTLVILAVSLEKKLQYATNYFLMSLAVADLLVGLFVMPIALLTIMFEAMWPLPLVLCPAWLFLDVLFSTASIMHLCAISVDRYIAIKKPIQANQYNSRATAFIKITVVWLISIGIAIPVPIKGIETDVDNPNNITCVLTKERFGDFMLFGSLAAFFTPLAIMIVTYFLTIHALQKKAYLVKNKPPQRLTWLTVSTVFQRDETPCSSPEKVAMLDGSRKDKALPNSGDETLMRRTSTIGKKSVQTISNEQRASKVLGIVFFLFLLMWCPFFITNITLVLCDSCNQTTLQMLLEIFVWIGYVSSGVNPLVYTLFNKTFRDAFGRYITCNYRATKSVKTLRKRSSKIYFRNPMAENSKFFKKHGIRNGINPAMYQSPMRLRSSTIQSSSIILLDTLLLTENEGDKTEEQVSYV

As usually defined, the EC50 is the midpoint of the concentration-response curve. As a reminder, the Ki is a measure of affinity in units of concentration, obtained from inhibition or displacement. In the case of `COc1cc(OCC(F)(F)F)c(OC)cc1CCN` [2C-O-22, 2,5-dimethoxy-4-(2,2,2-trifluoroethoxy)phenethylamine], the EC50 on human 5-HT2B receptor amounted to 0.25 ± 0.01 µM. Also, the “Increase in 5-HT2B activation potency compared to 2C-O-21 (9)” value at human 5-HT2B receptor was determined as 4 fold. Also, the Emax at human 5-HT2B receptor came out at 28 ± 20%. Also, the Ki at α2A adrenergic receptor is 1.8 ± 0.1 µM; on α1A adrenergic receptor it was over 6.5 µM; on hDAT, over 8.7 µM.
`COc1cc(OC(C)C)c(OC)cc1CC(C)N` (stereo not shown) [MIPM, 2,5-dimethoxy-4-isopropoxyamphetamine]: the EC50 on human 5-HT2B receptor came out at 0.18 ± 0.12 µM. For the same molecule, at human 5-HT2B receptor, the “Higher 5-HT2B activation potency compared to TMA-2 (19)” value is recorded as 2 fold. Moreover, at human 5-HT2B receptor, the Emax amounted to 20 ± 14%. In addition, the results for the Ki at α2A adrenergic receptor, on α1A adrenergic receptor and on hDAT were over 4.8 µM, over 6.5 µM and over 8.7 µM, respectively.
For the molecule `COc1cc(OCc2ccccc2)c(OC)cc1CCN` [2C-O-27, 4-benzyloxy-2,5-dimethoxyphenethylamine], the EC50 on human 5-HT2B receptor worked out at 0.48 ± 0.19 µM. Also, the Emax at human 5-HT2B receptor amounted to 39 ± 16%. For the same molecule, the Ki at α2A adrenergic receptor is 0.57 ± 0.03 µM; at α1A adrenergic receptor, over 6.5 µM; at hDAT, 6.1 ± 0.4 µM.
Consider `C=C(C)COc1cc(OC)c(CCN)cc1OC` [2C-O-3, 2,5-dimethoxy-4-methallyloxyphenethylamine], for which the EC50 at human 5-HT2B receptor was 0.068 ± 0.021 µM. Further, the Emax on human 5-HT2B receptor was 50 ± 22%. Further, the Ki on α2A adrenergic receptor is 0.18 ± 0.01 µM; on α1A adrenergic receptor, over 6.5 µM; on hDAT it was over 8.7 µM.
As to `C=CCOc1cc(OC)c(CC(C)N)cc1OC` (stereo not shown) [MALM, 4-allyloxy-2,5-dimethoxyamphetamine], the concentration for a half-maximal effect (EC50) on human 5-HT2B receptor is 0.0095 ± 0.0033 µM. Further, the “Higher 5-HT2B activation potency compared to TMA-2 (19)” value at human 5-HT2B receptor amounted to 28 fold. In addition, the Emax at human 5-HT2B receptor was 85 to 101%. For the same molecule, the Ki at α2A adrenergic receptor is over 4.8 µM; on α1A adrenergic receptor it was over 6.5 µM; on hDAT, over 8.7 µM.
`COc1cc(OCC(F)F)c(OC)cc1CCN` [2C-O-21.5, 4-(2,2-difluoroethoxy)-2,5-dimethoxyphenethylamine]: on human 5-HT2B receptor, the EC50 is 0.48 ± 0.26 µM, the “Increase in 5-HT2B activation potency compared to 2C-O-21 (9)” value stood at 2 fold and the Emax is 28 ± 23%. The same molecule came in with a Ki on α2A adrenergic receptor of 1.9 ± 0.1 µM. The molecule also yielded a Ki on α1A adrenergic receptor of over 6.5 µM. This molecule showed a Ki at hDAT of over 8.7 µM.
Turning to `CCOc1cc(OC)c(CCN)cc1OC` [2C-O-2, 2,5-dimethoxy-4-ethoxyphenethylamine], the EC50 on human 5-HT2B receptor amounted to 0.049 ± 0.044 µM. On human 5-HT2B receptor, the Emax is 85 to 101%. For the same molecule, the inhibitory constant (Ki) is 2.6 ± 0.1 µM at α2A adrenergic receptor, over 6.5 µM at α1A adrenergic receptor and over 8.7 µM on hDAT.
Take `COc1cc(OCCF)c(OC)cc1CC(C)N` (stereo not shown) [MFEM, 2,5-dimethoxy-4-(2-fluoroethoxy)amphetamine]: the EC50 on human 5-HT2B receptor was found to be 0.27 ± 0.21 µM. At human 5-HT2B receptor, the Emax came out at 41 ± 22%. Moreover, the Ki at α2A adrenergic receptor was over 4.8 µM; on α1A adrenergic receptor it was over 6.5 µM; on hDAT, over 8.7 µM.
Consider `C=CCOc1cc(OC)c(CCN)cc1OC` [2C-O-16, 4-allyloxy-2,5-dimethoxyphenethylamine], for which, at human 5-HT2B receptor, the EC50 was determined as 0.12 ± 0.07 µM. Besides, the Emax on human 5-HT2B receptor turned out to be 42 ± 13%. Also, the values for the Ki on α2A adrenergic receptor, at α1A adrenergic receptor and at hDAT were 0.62 ± 0.02 µM, over 6.5 µM and over 8.7 µM, respectively.
For the molecule `COc1cc(OCC(F)F)c(OC)cc1CC(C)N` (stereo not shown) [MDFEM, 4-(2,2-difluoroethoxy)-2,5-dimethoxyamphetamine], the EC50 at human 5-HT2B receptor was determined as 0.13 ± 0.08 µM. The Emax at human 5-HT2B receptor was found to be 21 ± 8%. Moreover, the results for the Ki at α2A adrenergic receptor, at α1A adrenergic receptor and on hDAT were over 4.8 µM, over 6.5 µM and over 8.7 µM, respectively.
With `COc1cc(OCC(F)(F)F)c(OC)cc1CC(C)N` (stereo not shown) [MTFEM, 2,5-dimethoxy-4-(2,2,2-trifluoroethoxy)amphetamine], at human 5-HT2B receptor, the EC50 stood at 0.2 ± 0.03 µM. For the same molecule, the Emax on human 5-HT2B receptor was 5%. Further, the Ki at α2A adrenergic receptor is over 4.8 µM; at α1A adrenergic receptor it was over 6.5 µM; on hDAT, over 8.7 µM.
In the same order, the values of `COc1cc(OCCF)c(OC)cc1CCN` [2C-O-21, 2,5-dimethoxy-4-(2-fluoroethoxy)phenethylamine] are 0.9 ± 0.45 µM, 39 ± 26%, 3.6 ± 0.5 µM, over 6.5 µM and over 8.7 µM.
In the case of `C=C(C)COc1cc(OC)c(CC(C)N)cc1OC` (stereo not shown) [MMALM, 2,5-dimethoxy-4-methallyloxyamphetamine], on human 5-HT2B receptor, the EC50 is 0.029 ± 0.013 µM, the “Higher 5-HT2B activation potency compared to TMA-2 (19)” value is 9 fold and the Emax lay in the range of 85 to 101%. The same molecule returned a Ki at α2A adrenergic receptor of 2.4 ± 0.2 µM. At α1A adrenergic receptor, the Ki is over 6.5 µM. The molecule further returned a Ki at hDAT of over 8.7 µM.
